Measurements: US20060210625A1, “Sustained release of positively charged pharmacologically active molecules from a matrix containing polymers with polarized oxygen atoms” (Shire Laboratories, Inc., priority 2003, published 2006)

Assay: Viscosity of HPMC K4M solution with trospium chloride (Brookfield viscometer)
Format: physicochemical
Conditions: S18 spindle
Procedure: Applicants have discovered that a certain interaction occurs between polarized oxygen atom containing-polymers and positively charged molecules, such as trospium chloride, which is exemplified by the dramatic change in viscosity of, for instance, an HPMC K4M solution when a drug in solution is added to it. An HPMC K4M solution was prepared and diluted to 2% by weight (or “w/w”) with either a trospium chloride solution or water. […] Without being bound to any particular theory, it is believed that this interaction leads to a slowed release of the active agent, and thus for the first time controlled release, once-daily formulations of highly water-soluble compounds can be made with relative ease.
In order to examine the interaction of trospium chloride with HPMC K4M polymer, viscosity of HPMC K4M was measured at a polymer concentration of 2% w/w at room temperature. Also examined was a 2% w/w solution of HPMC K4M containing trospium chloride at a final concentration of 16.7% w/w.
Viscosity was measured using a Brookfield viscometer fitted with an S18 spindle. Viscosity was measured at two spindle speeds. […] The contribution of the trospium chloride solution viscosity on the viscosity of the HPMC K4M solution is negligible.

O=C(O[C@H]1C[C@H]2CC[C@@H](C1)[N+]21CCCC1)C(O)(c1ccccc1)c1ccccc1 [trospium chloride]
viscosity of the HPMC K4M solution in the presence of the drug as compared to HPMC K4M solution without the drug (2% w/w HPMC K4M, trospium chloride 16.7% w/w, room temperature, two spindle speeds): more than doubled | contribution of the trospium chloride solution viscosity on the viscosity of the HPMC K4M solution (Brookfield viscometer): negligible
